Results reported in patent publication US12383530B2, “Pharmaceutical combination for the treatment of melanoma” (Piramal Enterprises Limited, priority 2013, dated 2025).
“And” between values parts separate entries of the source, which are not always exact repeats. Equal values may be shown once.

What was measured:
G361 melanoma cells [1] = assay: Analysis of cell cycle distribution using flow cytometry, G361; assay type: cell-based, human; settings: 5 days; for apoptosis (sub G1 phase): 1 μM of each compound, alone or together
Procedure: The G361/SK-MEL3 melanoma cells were seeded in […] tissue culture flasks. After 24 h, G361 cells were treated with: i) compound A (1 μM); ii) vemurafenib (1 μM); and iii) compound A (1 μM) and vemurafenib (1 μM) together for 5 days.
(§1) The control cells were left untreated for 5 days. Both detached and adherent cells were harvested at the end of 5 days. The cells were washed twice with approximately 5 mL of phosphate buffered saline (PBS) with centrifugation at 1000 rpm for 10 min. The cells were resuspended in 500 μL of PBS and fixed in 500 μL ice-cold 70% ethanol. The fixed cells were incubated at room temperature for 30 min, spun at 1000 rpm for 10 min. To the cell pellet, 1 mL of chilled 70% ethanol was added and stored below 0° C. till further analysis. The cells were washed twice with PBS to remove fixative and re-suspended in 250 μL PBS. To this 12.5 μL of propidium iodide (1 mg/ml in PBS) and 12.5 μL Rnase A (1 mg/mL) was added. After incubation at 37° C. for 30 min, the cells were analyzed using flow cytometry.
(§2) A flow cytometer (Becton Dickinson FACS Calibur, USA) was used for these studies in accordance with the manufacturer's recommendations. The argon ion laser set at 488 nm was used as an excitation source. Cells with DNA content between 2n and 4n were designated as being in G1, S and G2/M phases of the cell cycle, as defined by the level of red fluorescence. […] The number of cells in each cell cycle compartment was expressed as a percentage of the total number of cells present.

SK-MEL3 melanoma cells = assay: Analysis of cell cycle distribution using flow cytometry, SK-MEL3; assay type: cell-based; settings: 5 days
Procedure: In case of SK-MEL3 melanoma cells, the cells were treated with: i) compound A (1 μM); ii) vemurafenib (10 μM); and iii) compound A (1 μM) and vemurafenib (10 μM) together for 5 days.
as §1, §2

G361 melanoma cells [2] = assay: Annexin V-FITC staining for detection of early apoptosis; assay type: cell-based, human; settings: 1 μM of each compound, alone or together, 24 h
Procedure: Annexin V-FITC is a sensitive probe for identifying apoptotic cells. During early apoptosis, the membrane phospholipid phosphatidyl serine (PS) is translocated from the inner to the outer leaflet of the plasma membrane, thereby exposing PS to the external cellular environment. Annexin V is a 35-36 kDa Calcium dependent phospholipid binding protein that has a high affinity for PS and binds to cells with exposed PS.
The melanoma cells G361 was seeded in […] tissue culture flasks. After 24 h, cells were treated with: i) compound A (1 μM); ii) vemurafenib (1 μM); and iii) compound A (1 μM) and vemurafenib (1 μM) together; for 24 h. The control cells were left untreated for 24 h. Medium containing floating cells were collected and pooled with the adherent cells after harvesting with trypsin at the different time points. The cells were washed twice with cold PBS with centrifugation at 1000 rpm for 10 minutes. The cell pellet was resuspended in 1× binding buffer (10 mm HEPES pH 7.4, 140 mM NaCl, 2.5 mM CaCl2) at a concentration of 1×10^6 cells/mL. 100 μL of the solution (1×10^5 cells) were stained with Annexin V-FITC and propidium iodide. The cells were incubated for 15 min at room temperature (25-30° C.) in the dark and the sample was analysed by flow cytometry.

[3] = system: A375 (BRAFV600E mutated) cell line; assay: CCK8 live cell dehydrogenase cytotoxicity assay, A375 (96-well); assay type: cell-based, human; settings: 48 h
Procedure: (§3) The cells were then treated with the respective test compounds.
(§4) At the end of the incubation periods, the plates were assayed using the CCK8 cytotoxicity assay protocol. The synergism was determined by the combination index (CI) calculated using the Compusyn software by Chou and Talalay (4). CI<1 is synergistic, CI=1 is additive and CI>1 is antagonistic.
(§5) Statistical analysis was performed using the Student t test, and a p value of <0.05 was considered significant. Data are expressed as the mean±standard error of the mean (SEM). The mean value was obtained from at least two independent experiments, each performed in triplicate.
(§6) Logarithmically growing cells were plated at a density of 3×10^3 cells/well and allowed to recover for 16-18 h. […] After 48 h, cell toxicity was determined by CCK-8 reagent (Dojindo Molecular Technologies, Inc, Maryland, and Japan). In accordance with the manufacturer's instructions, 5 μL/well CCK-8 reagent was added and plates were incubated for 2 h. The toxicity was determined by measuring the absorbance on Tecan Sapphire multi-fluorescence micro-plate reader at a wavelength of 450 nm corrected to 650 nm and normalized to controls. All the experiments were performed twice in triplicates.

[4] = system: G361 (BRAFV600E mutated) cell line; assay: CCK8 live cell dehydrogenase cytotoxicity assay, G361 (96-well); assay type: cell-based, human; settings: 48 h
Procedure: as §3, §4, §5, §6

[5] = system: MDAMB-435S (BRAFV600E mutated) cell line; assay: CCK8 live cell dehydrogenase cytotoxicity assay, MDAMB-435S (96-well); assay type: cell-based, human; settings: 48 h
Procedure: as §3, §4, §5, §6

[6] = system: A375 (BRAFV600E mutated) cell line; assay: CCK8 live cell dehydrogenase assay, A375 (384-well, Example 2); assay type: cell-based, human; settings: A375 parental, single agent, 48 h
Procedure: Logarithmically growing human BRAFV600E mutated melanoma cells were seeded at a density of 1500 cells/well in 30 μL of Dulbecco's Modified Eagle medium medium (DMEM) in 384-well plate (Corning, USA) using Tecan automated platform (FreedomEvo Liquid handling system) and incubated for about 12-16 h to allow the cells to adhere. […] The controls used were only cells or cells along with the vehicle (DMSO).
The plates were incubated for 48 h in humidified 5% CO2 incubator at 37°±1° C. Post incubation the plates were assayed using the CCK8 reagent (Dojindo Molecular Technologies, Inc, Maryland, and Japan). In accordance with the manufacturer's instructions, 3 μL CCK-8 reagent was added in each well of the 384 well plate and plates were incubated for 2 h. The toxicity was determined by measuring the absorbance on Tecan Sapphire multi-fluorescence micro-plate reader at a wavelength of 450 nm normalized to controls. All the experiments were performed in quadruplets.

[7] = system: A375R cell line (vemurafenib resistant); assay: CCK8 live cell dehydrogenase assay, A375R (384-well, Example 2); assay type: cell-based, human; settings: single agent, 48 h
Procedure: The cytotoxicity studies using all the test compounds as single agents and in combinations were carried out using the CCK8 live cell dehydrogenase assay.
Logarithmically growing human BRAFV600E mutated melanoma cells were seeded at a density of 1500 cells/well in 30 μL of Dulbecco's Modified Eagle medium medium (DMEM) in 384-well plate (Corning, USA) using Tecan automated platform (FreedomEvo Liquid handling system) and incubated for about 12-16 h to allow the cells to adhere. The cells were then treated for 48 h with different doses of compound A and anticancer agents (vemurafenib or dabrafenib or trametinib) as monotherapy (used singly) and in combinations. Studies using different dosages were carried out for each combination (e.g. combination of compound A and vemurafenib). […]
The plates were incubated for 48 h in humidified 5% CO2 incubator at 37°±1° C. […] The toxicity was determined by measuring the absorbance on Tecan Sapphire multi-fluorescence micro-plate reader at a wavelength of 450 nm normalized to controls. […]
The potency of the combination was quantified using Calcusyn software (Biosoft, Ferguson, MO, USA) which is based on the Chou Talalay method that calculates a combination index (CI) with CI values less than 1 indicating synergy.

CN1CC[C@@H](c2c(O)cc(O)c3c(=O)cc(-c4ccc(C(F)(F)F)cc4Cl)oc23)[C@@H]1CO.Cl (relative stereo) [compound A, (+)-trans-2-(2-chloro-4-trifluoromethylphenyl)-5,7-dihydroxy-8-(2-hydroxy-methyl-1-methylpyrrolidin-3-yl)-chromen-4-one Hydrochloride]
apoptosis (sub G1 phase) (G361 melanoma cells [1]): 9.48% | apoptosis (sub G1 phase) (SK-MEL3 melanoma cells; compound A 1 μM alone): 19.63% | cells in early apoptosis (annexin stained cells) (G361 melanoma cells [2]): 8% | inhibition of cells ([3]; A375, compound A 3 μM alone): 46% | inhibition of cells ([4]; G361, compound A 0.3 μM alone): 2% | inhibition of cells ([5]; MDA-MB435S, compound A 1 μM alone): 32% | IC50 ([5]; MDAMB435S, cytotoxicity, Hydrochloride, read-out: IC50 in μM (±SEM)): 0.85 µM and 0.7 µM | sensitivity of the cell line (dose response curve) [6]: equally sensitive | sensitivity of the cell line (dose response curve) [7]: equally sensitive

CCCS(=O)(=O)Nc1ccc(F)c(C(=O)c2c[nH]c3ncc(-c4ccc(Cl)cc4)cc23)c1F [vemurafenib, reference compound]
apoptosis (sub G1 phase) (G361 melanoma cells [1]): 2.3% | G1 arrest (G361 melanoma cells [1]; vemurafenib 1 μM, control cells 72.36%): 91.94% | apoptosis (sub G1 phase) (SK-MEL3 melanoma cells; vemurafenib 10 μM alone): 15.12% | G1 arrest (SK-MEL3 melanoma cells; vemurafenib 10 μM, control cells 67.38%): 76.78% | cells in early apoptosis (annexin stained cells) (G361 melanoma cells [2]): 20% | inhibition at 1 µM ([3]; Homo sapiens, A-375, A375, vemurafenib 1 μM alone, read-out: inhibition of cells): 23% | inhibition at 1 µM ([4]; Homo sapiens, G-361, G361, vemurafenib 1 μM alone, read-out: inhibition of cells): 30% | inhibition at 1 µM ([5]; Homo sapiens, MDA-MB-435S, MDA-MB435S, vemurafenib 1 μM alone, read-out: inhibition of cells): 31%
